Measurements: PMC7125190, “Native/citrullinated LL37-specific T-cells help autoantibody production in Systemic Lupus Erythematosus” (Scientific Reports, 2020)

Test system: pDCs
Assay: Stimulation of pDCs (IFN-α ELISA)
Type: cell-based
Settings: peptide premixed with human genomic DNA 10 µg/mL, 24 hours, Fig. S4B
Description: Buffy coats of HD were from Centro Trasfusionale, Policlinico Umberto I, Rome, IT. After separation of mononuclear cells by Ficoll centrifugation, pDCs were purified as described[9],[10], by using the Diamond Plasmacytoid Dendritic Cell Isolation Kit (Miltenyi Biotec) to obtain 99% purity.
Antibodies and reagents for flow cytometry, confocal microscopy and immunohistochemistry Antibodies to CD4, CD8, CD3, conjugated with various fluorochromes [FITC, phycoerythrin (PE), peridinin-chlorophyll-protein (PerCp), allophycocyanin (APC), PE-Cy7] were from BD Biosciences or eBiosciences (San Diego, CA). For further LL37-specific T-cell characterization, FITC-, APC-, PE-, PerCp-, PerCpCy5.5-, APC-Cy7-, AlexaFluor488-conjugated CCR6, -CLA, -CXCR5 (FAB190), PD1, -ICOS, -CD38, CD19, CD20, CD27, CD138 antibodies were purchased from BD Biosciences, eBiosciences, Novus Biologicals (Littleton, CO), R&D (Minneapolis, MN), Invitrogen Life Technologies. […]
Purified pDCs were seeded into 96-well round-bottom plates at 3.5/5 × 10^4 cells per well in 200 μl RPMI 1640 (GIBCO), supplemented with 15% fetal calf serum (FCS), 1% Hepes and 1% sodium piruvate. […] IFN-α in supernatants was measured by enzyme linked immunosorbent assay (ELISA) (MabTech, France) after 24 hours. […]

Substance: LLGDFFR(cit)KSKEKIGKEFKR(cit)IVQR(cit)IKDFLR(cit)NLVPR(cit)TES [cit-LL37, citrullinated LL37 (citrullinated at all five arginin positions)]
- adjuvant activity for DCs: completely devoid of adjuvant activity for DCs
